These results are taken from patent publication US12018001B2, “Pyrimidine cyclohexenyl glucocorticoid receptor modulators” (priority 2018, dated 2024).

In data set [1] the target is T1, glucocorticoid receptor (Homo sapiens, UniProt P04150).
T1 construct: host or cells: HepG2
T1 sequence (P04150 1-777): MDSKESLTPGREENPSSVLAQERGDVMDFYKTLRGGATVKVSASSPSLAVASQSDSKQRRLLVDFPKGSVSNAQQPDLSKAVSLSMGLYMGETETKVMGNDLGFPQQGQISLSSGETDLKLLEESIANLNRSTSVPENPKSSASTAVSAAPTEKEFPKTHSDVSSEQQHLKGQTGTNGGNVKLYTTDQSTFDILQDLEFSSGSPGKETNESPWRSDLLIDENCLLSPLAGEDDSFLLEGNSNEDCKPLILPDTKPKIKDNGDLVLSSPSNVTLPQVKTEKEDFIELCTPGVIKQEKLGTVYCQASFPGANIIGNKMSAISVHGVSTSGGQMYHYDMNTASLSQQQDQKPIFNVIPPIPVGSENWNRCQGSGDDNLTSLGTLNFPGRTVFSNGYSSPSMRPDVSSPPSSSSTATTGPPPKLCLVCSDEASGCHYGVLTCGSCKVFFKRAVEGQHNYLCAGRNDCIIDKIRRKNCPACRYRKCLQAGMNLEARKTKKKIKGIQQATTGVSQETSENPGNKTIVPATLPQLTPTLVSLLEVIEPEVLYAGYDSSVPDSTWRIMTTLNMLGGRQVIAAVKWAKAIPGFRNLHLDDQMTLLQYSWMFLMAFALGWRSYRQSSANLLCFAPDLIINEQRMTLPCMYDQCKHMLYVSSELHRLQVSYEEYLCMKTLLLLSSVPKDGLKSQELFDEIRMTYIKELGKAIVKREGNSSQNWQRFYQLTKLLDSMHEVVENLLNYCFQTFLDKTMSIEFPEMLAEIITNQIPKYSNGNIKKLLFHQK
The data set can be described thus: Hep G2 TAT assay: induction of TAT by dexamethasone in HepG2 cells. The format is cell-based. The procedure:
Glucocorticoid mediated activation of TAT occurs by transactivation of glucocorticoid response elements in the TAT promoter by glucocorticoid receptor-agonist complex.
TAT activity was measured as outlined in the literature by A. Ali et al., J. Med. Chem., 2004, 47, 2441-2452.
HepG2 cells were cultured using MEME media supplemented with 10% (v/v) foetal bovine serum; 2 mM L-glutamine and 1% (v/v) NEAA at 37° C., 5%/95% (v/v) CO2/air. The HepG2 cells were counted and adjusted to yield a density of 0.125×10^6 cells/ml in RPMI 1640 without phenol red, 10% (v/v) charcoal stripped FBS, 2 mM L-glutamine and seeded at 25,000 cells/well in 200 μl into 96 well, sterile, tissue culture micro titre plates, and incubated at 37° C., 5% CO2 for 24 hours
Growth media was removed and replaced with assay media {RPMI 1640 without phenol red, 2 mM L-glutamine+10 μM forskolin}. […] Compounds were serially half log diluted in 100% (v/v) dimethylsulphoxide from a 10 mM stock.
HepG2 cells were then lysed with 30 μl of cell lysis buffer containing a protease inhibitor cocktail for 15 minutes at 4° C. 155 μl of substrate mixture was then added containing 5.4 mM Tyrosine sodium salt, 10.8 mM alpha ketoglutarate and 0.06 mM pyridoxal 5′ phosphate in 0.1 M potassium phosphate buffer (pH 7.4). After 2 hours incubation at 37° C. the reaction was terminated by the addition of 15 μl of 10 M aqueous potassium hydroxide solution, and the plates incubated for a further 30 minutes at 37° C. The TAT activity product was measured by absorbance at λ 340 nm.
[compound] and fitting the data to a 4 parameter logistic equation.

The nature of data set [2]: Rat pharmacokinetics (PK) studies, oral gavage cassette. The format is in vivo, male Sprague Dawley rats. Conditions: male, Sprague Dawley (or equivalent), rat plasma; for AUC(0-t): read-out: AUC0-24. The protocol:
Rat PK studies were conducted in male Sprague Dawley rats (or equivalent) with 3 rats per group. Compounds were evaluated in cassettes of 4 compounds per cassette, with each cassette containing 3 test compounds and one comparator compound with known PK parameters. Rats were cannulated in the jugular vein. The compounds were administered by oral gavage using a suitable vehicle, such as 10% DMSO and 90% methyl cellulose. Compounds of Example 1, Example 10, Example 14, and Example 20 were evaluated with a nominal dose of 1.25 mg/kg and the compound of Example 32 was evaluated with a nominal dose of 3 mg/kg. Blood samples were collected at various timepoints out to 24 hours post-dose and processed to provide plasma. Compound concentrations in the plasma samples were determined by LC/MS analysis. Cmax and AUC were calculated using WinNonlin.

For data set [3], the target named is T2, GR (Homo sapiens, UniProt P04150).
T2 sequence (P04150 1-777): T1 sequence (P04150 1-777)
As to the kind of experiment: GR binding.

Like-named read-outs stand apart in the source and are kept apart here.

In turn, `N#Cc1ccc(C2=CCC(c3[nH]c(=O)[nH]c(=O)c3Cc3ccccc3)CC2)c(C(F)(F)F)c1` (stereo not drawn) [Example 32] gave a Ki in data set [1] of 66 nM. Besides, in data set [2] (nominal dose 3 mg/kg), the highest concentration (Cmax) was 453 ng/mL and the AUC(0-t) was found to be 988 ng·h/mL.

The compound `O=c1[nH]c(C2CC=C(c3cccnc3C(F)(F)F)CC2)c(Cc2ccccc2)c(=O)[nH]1` (stereo not drawn) [Example 14] gave an inhibition constant (Ki) in data set [1] of 41 nM. In data set [2] (nominal dose 1.25 mg/kg), the highest concentration (Cmax) was 63 ng/mL and the AUC(0-t) was 188 ng·h/mL.

Take `COc1cc(C#N)ccc1C1=CCC(c2[nH]c(=O)[nH]c(=O)c2Cc2ccccc2)CC1` (stereo not drawn) [Example 20]: the inhibition constant (Ki) in data set [1] is 33 nM. For the same compound, in data set [2] (nominal dose 1.25 mg/kg), the Cmax amounted to 83.6 ng/mL and the AUC(0-t) was 375 ng·h/mL.

As for `O=c1[nH]c(C2CC=C(c3ccc(Cl)cc3C(F)(F)F)CC2)c(Cc2ccccc2)c(=O)[nH]1` (stereo not drawn) [Example 10], the affinity in data set [1], expressed as Ki, was 38 nM. Further, in data set [2] (nominal dose 1.25 mg/kg), the Cmax was 196 ng/mL and the AUC(0-t) stood at 3040 ng·h/mL.

Regarding `CN(C)S(=O)(=O)c1cc(C(F)(F)F)ccc1C1=CCC(c2[nH]c(=O)[nH]c(=O)c2Cc2ccccc2)CC1` (stereo not drawn) [Example 97], the IC50 in data set [3] turned out to be 2560 nM.

Compound `CN(C)c1ccc(C2=CCC(c3[nH]c(=O)[nH]c(=O)c3Cc3ccccc3)CC2)cn1` (stereo not drawn) [Example 70] registered an IC50 in data set [3] of 142 nM.

In data set [3], `O=c1[nH]c(C2CC=C(c3ccc(OC(F)F)cc3Cl)CC2)c(Cc2ccccc2)c(=O)[nH]1` (stereo not drawn) [Example 108] registered a half-inhibitory concentration (IC50) of 5.4 nM.

In data set [3], `O=c1[nH]c(C2CC=C(c3ccc4c(c3)OCCO4)CC2)c(Cc2ccccc2)c(=O)[nH]1` (stereo not drawn) [Example 65] showed a half-inhibitory concentration (IC50) of 103 nM.

In data set [3], `CCOc1ccc(C2=CCC(c3[nH]c(=O)[nH]c(=O)c3Cc3ccccc3)CC2)c(Cl)c1` (stereo not drawn) [Example 82] displayed a half-maximal inhibitory concentration (IC50) of 4.4 nM. Against the preceding compound, the IC50 is about 23-fold lower.

`Cc1nn(C)c(C)c1C1=CCC(c2[nH]c(=O)[nH]c(=O)c2Cc2ccccc2)CC1` (stereo not drawn) [Example 80]: the concentration for half-maximal inhibition (IC50) in data set [3] was 295 nM.

The compound `N#Cc1ccc(C2=CCC(c3[nH]c(=O)[nH]c(=O)c3Cc3ccccc3)CC2)c(Cl)c1` (stereo not drawn) [Example 1, 4′-(5-benzyl-2,6-dioxo-1,2,3,6-tetrahydropyrimidin-4-yl)-2-chloro-2′,3′,4′,5′-tetrahydro-[1,1′-biphenyl]-4-carbonitrile] registered a Ki in data set [1] of 28 nM. In data set [2] (nominal dose 1.25 mg/kg), the maximum concentration (Cmax) was found to be 114 ng/mL and the AUC(0-t) is 991 ng·h/mL.

The compound `CCS(=O)(=O)c1ccc(C2=CCC(c3[nH]c(=O)[nH]c(=O)c3Cc3ccccc3)CC2)c(Cl)c1` (stereo not drawn) [Example 107] gave an IC50 in data set [3] of 2.8 nM. In other words, the single-digit nanomolar range.

`CN(C)c1ncccc1C1=CCC(c2[nH]c(=O)[nH]c(=O)c2Cc2ccccc2)CC1` (stereo not drawn) [Example 118] returned an IC50 in data set [3] of 0.76 nM.

In data set [3], `CNS(=O)(=O)c1cc(C(F)(F)F)ccc1C1=CCC(c2[nH]c(=O)[nH]c(=O)c2Cc2ccccc2)CC1` (stereo not drawn) [Example 96] gave an IC50 of 5090 nM.

Turning to `O=c1[nH]c(C2CC=C(c3cccc4nncn34)CC2)c(Cc2ccccc2)c(=O)[nH]1` (stereo not drawn) [Example 88], the half-maximal inhibitory concentration (IC50) in data set [3] amounted to 483 nM.

Regarding `O=c1[nH]c(C2CC=C(c3ccc(Cl)c(F)c3F)CC2)c(Cc2ccccc2)c(=O)[nH]1` (stereo not drawn) [Example 83], in data set [3], the IC50 worked out at 38.3 nM.

In data set [3], `O=c1[nH]c(C2CC=C(c3ccc(C(F)(F)F)c(Cl)c3)CC2)c(Cc2ccccc2)c(=O)[nH]1` (stereo not drawn) [Example 69] showed an IC50 of 3420 nM.

In data set [3], `O=c1[nH]c(C2CC=C(c3ccc4ncsc4c3)CC2)c(Cc2ccccc2)c(=O)[nH]1` (stereo not drawn) [Example 64] yielded an IC50 of 142 nM.

In data set [3], `Cn1cnc2ccc(C3=CCC(c4[nH]c(=O)[nH]c(=O)c4Cc4ccccc4)CC3)cc21` (stereo not drawn) [Example 66] came in with an IC50 of 3520 nM.

`Cn1ncc2ccc(C3=CCC(c4[nH]c(=O)[nH]c(=O)c4Cc4ccccc4)CC3)cc21` (stereo not drawn) [Example 57] yielded a half-maximal inhibitory concentration (IC50) in data set [3] of 266 nM.

`CC(C)Oc1cc(C(F)(F)F)ccc1C1=CCC(c2[nH]c(=O)[nH]c(=O)c2Cc2ccccc2)CC1` (stereo not drawn) [Example 59] returned a concentration for half-maximal inhibition (IC50) in data set [3] of 134 nM. This IC50 is about 2-fold lower than that of the compound before.

With `CS(=O)(=O)c1ccc(C2=CCC(c3[nH]c(=O)[nH]c(=O)c3Cc3ccccc3)CC2)c(Cl)c1` (stereo not drawn) [Example 106], the IC50 in data set [3] amounted to 2.1 nM.

In turn, `CN(C)S(=O)(=O)c1cc(F)c(C2=CCC(c3[nH]c(=O)[nH]c(=O)c3Cc3ccccc3)CC2)c(F)c1` (stereo not drawn) [Example 104] registered an IC50 in data set [3] of 3160 nM.
